The values below come from PMC9402538, “Rational design of a sensitivity-enhanced tracer for discovering efficient APC–Asef inhibitors” (Nature Communications, 2022).

Read-outs that look alike come from different tables or passages of the source. Where a SMILES comes first, the peptide text is derived from it. [ ]: non-standard residue; d: D form. The star is where a group is joined. Cyclohexanecarbonyl = O=C(C1CCCCC1)*; Cyclopentanecarbonyl = O=C(C1CCCC1)*; Benzoyl(4-OMe) = COc1ccc(C(=O)*)cc1; Benzoyl(4-Me) = Cc1ccc(C(=O)*)cc1; Ala(cPr) = N[C@@H](CC1CC1)C(=O)O; Oxazole2carbonyl = O=C(c1ncco1)*; Cha = N[C@@H](CC1CCCCC1)C(=O)O; hLeu = CC(C)CC[C@H](N)C(=O)O; Nicotinoyl = O=C(c1cccnc1)*; Acryloyl = C=CC(=O)*

The target in the assay is T1, APC (303–739) (Homo sapiens, UniProt P25054).
T1 sequence (P25054 303-739): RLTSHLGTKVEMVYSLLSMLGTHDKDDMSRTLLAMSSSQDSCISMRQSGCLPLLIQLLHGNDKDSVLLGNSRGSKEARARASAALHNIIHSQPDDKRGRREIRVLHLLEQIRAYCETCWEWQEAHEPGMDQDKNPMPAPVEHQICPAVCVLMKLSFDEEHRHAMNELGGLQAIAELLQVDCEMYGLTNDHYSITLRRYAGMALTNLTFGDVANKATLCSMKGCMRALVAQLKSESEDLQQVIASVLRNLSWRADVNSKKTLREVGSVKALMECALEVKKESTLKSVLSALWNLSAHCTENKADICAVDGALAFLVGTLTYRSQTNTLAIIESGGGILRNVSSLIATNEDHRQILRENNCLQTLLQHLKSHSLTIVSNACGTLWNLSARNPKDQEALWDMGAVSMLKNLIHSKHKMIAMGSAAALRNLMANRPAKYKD
Kind of assay: FP competitive assay using tracer 7. Format: binding. The procedure: FITC-labeled tracer peptides were obtained from Changzhou Kanglong Biotech Ltd. (Changzhou, Jiangsu, China). […]. The FP signal changes upon tracer binding were measured after 1.5 h of incubation using a Synergy neo microplate reader (BioTek Instruments, Inc.) and plotted against the protein concentration. The corresponding EC50 values were generated by fitting the curves with a nonlinear regression model. […]. To make a working solution, APC (303–739) was diluted in FP buffer (50 mM HEPES, pH 7.5, 300 mM NaCl, 1 mM EDTA, 1 mM DTT). The diluted APC protein (91 μL) was combined with a serial dilution of peptides (4 μL) and incubated at room temperature for 1 h, followed by the addition of 5 μL of 400 nM tracer 7. The FP signals were measured after 1.5 h of incubation at room temperature using a Synergy neo microplate reader. Three controls were included on each plate, i.e., blank (without protein and tracer), 100% inhibition (free tracer only), and 0% inhibition (protein/tracer complex only) controls. All experiments were performed in triplicate. The IC50 values of peptides were calculated by nonlinear regression analysis using GraphPad Prism 7.0 software.

[1] abbreviates: Repeat 1, Table 3 source data, read-out: IC50(μM) Repeat 1.
Setting [2] is: Repeat 2, Table 3 source data, read-out: IC50(μM) Repeat 2.
Where [3] appears, read: Repeat 3, Table 3 source data, read-out: IC50(μM) Repeat 3.
The mark [4] stands for this setting: mean of 3 repeats, Table 3 source data, read-out: IC50(μM) mean.
[5] abbreviates: tracer 7, mean of three repeats, read-out: IC50 mean.
Where [6] appears, read: tracer 7, read-out: IC50 Repeat 1.
[7] abbreviates: tracer 7, read-out: IC50 Repeat 2.
Where [8] appears, read: tracer 7, read-out: IC50 Repeat 3.

What is called IC50 is the concentration at which inhibition is half-maximal. On to `CC(C)C[C@H](NC(=O)[C@H](CO)NC(=O)[C@H](CCC(=O)O)NC(=O)CNC(=O)[C@H](C)NC(=O)C1CCCC1)C(=O)N[C@@H](Cc1ccc(O)cc1)C(=O)N[C@@H](CCC(=O)O)C(N)=O` [MAI-503] (Cyclopentanecarbonyl-AGESLYE-NH2), for which the IC50 is, setting by setting: under setting [1], 7.09 µM; under setting [2], 5.22 µM; under setting [3], 5.07 µM; under setting [4], 5.79 µM.
Take `COc1ccc(C(=O)N[C@@H](C)C(=O)NCC(=O)N[C@@H](CCC(=O)O)C(=O)N[C@@H](CO)C(=O)N[C@@H](CCC(C)C)C(=O)N[C@@H](Cc2ccc(O)cc2)C(=O)N[C@@H](CCC(=O)O)C(N)=O)cc1` [MAI-517] ({Benzoyl(4-OMe)}-AGES[hLeu]YE-NH2): the IC50 is, setting by setting: under setting [5], 0.0247 µM; under setting [6], 0.0255 µM; under setting [7], 0.0285 µM; under setting [8], 0.0202 µM.
As to `C=CC(=O)N[C@@H](C)C(=O)NCC(=O)N[C@@H](CCC(=O)O)C(=O)N[C@@H](CO)C(=O)N[C@@H](CC(C)C)C(=O)N[C@@H](Cc1ccc(O)cc1)C(=O)N[C@@H](CCC(=O)O)C(N)=O` [MAI-501] (Acryloyl-AGESLYE-NH2), the IC50 was 29.9 µM under setting [1], 19.1 µM under setting [2], 22 µM under setting [3] and 23.7 µM under setting [4].
On the same counts, the results for `CC(C)C[C@H](NC(=O)[C@H](CO)NC(=O)[C@H](CCC(=O)O)NC(=O)CNC(=O)[C@H](C)NC(=O)c1cccnc1)C(=O)N[C@@H](Cc1ccc(O)cc1)C(=O)N[C@@H](CCC(=O)O)C(N)=O` [MAI-513] (Nicotinoyl-AGESLYE-NH2) are 0.234 µM, 0.331 µM, 0.318 µM and 0.294 µM.
On the same counts, the results for `CC(C)C[C@H](NC(=O)[C@H](CO)NC(=O)[C@H](CCC(=O)O)NC(=O)CNC(=O)[C@H](C)NC(=O)C1CCCCC1)C(=O)N[C@@H](Cc1ccc(O)cc1)C(=O)N[C@@H](CCC(=O)O)C(N)=O` [MAI-504] (Cyclohexanecarbonyl-AGESLYE-NH2) are 2.24 µM, 1.66 µM, 1.59 µM and 1.83 µM.
On the same counts, the results for `Cc1ccc(C(=O)N[C@@H](C)C(=O)NCC(=O)N[C@@H](CCC(=O)O)C(=O)N[C@@H](CO)C(=O)N[C@@H](CC(C)C)C(=O)N[C@@H](Cc2ccc(O)cc2)C(=O)N[C@@H](CCC(=O)O)C(N)=O)cc1` [MAI-515] ({Benzoyl(4-Me)}-AGESLYE-NH2) are 0.261 µM, 0.204 µM, 0.254 µM and 0.239 µM.
`COc1ccc(C(=O)N[C@@H](C)C(=O)NCC(=O)N[C@@H](CCC(=O)O)C(=O)N[C@@H](CO)C(=O)N[C@@H](CC2CC2)C(=O)N[C@@H](Cc2ccc(O)cc2)C(=O)N[C@@H](CCC(=O)O)C(N)=O)cc1` [MAI-518] ({Benzoyl(4-OMe)}-AGES[Ala(cPr)]YE-NH2): the IC50 reads like this: under setting [5], 0.0449 µM; under setting [6], 0.0454 µM; under setting [7], 0.047 µM; under setting [8], 0.0424 µM.
In the case of `CC(C)C[C@H](NC(=O)[C@H](CO)NC(=O)[C@H](CCC(=O)O)NC(=O)CNC(=O)[C@H](C)NC(=O)c1ncco1)C(=O)N[C@@H](Cc1ccc(O)cc1)C(=O)N[C@@H](CCC(=O)O)C(N)=O` [MAI-455] (Oxazole2carbonyl-AGESLYE-NH2), the 50% inhibitory concentration (IC50) (Supplementary Table 4, read-out: IC50, Tracer 7) amounted to 0.86 ± 0.03 µM.
Turning to `COc1ccc(C(=O)N[C@@H](C)C(=O)NCC(=O)N[C@@H](CCC(=O)O)C(=O)N[C@@H](CO)C(=O)N[C@@H](CC2CCCCC2)C(=O)N[C@@H](Cc2ccc(O)cc2)C(=O)N[C@@H](CCC(=O)O)C(N)=O)cc1` [MAI-520] ({Benzoyl(4-OMe)}-AGES[Cha]YE-NH2), the IC50 is, setting by setting: under setting [5], 0.0509 µM; under setting [6], 0.0544 µM; under setting [7], 0.0551 µM; under setting [8], 0.0432 µM.
